For data set [1] the following is noted: 298.15 K; 101 kPa; Liquid.
The nature of data set [2]: mn = molality of the nth substance listed, in mol/kg. The note with it: 298.15 K, 101 kPa, Liquid.

Several values for one entry are separate records, joined by “and”; a condition that tells them apart may be missing. Equal entries are not always repeated. ± gives the expanded uncertainty stated by the source.

Usually mass density stands for the mass of a sample divided by its volume.

As for `CC(C)=O` [acetone], the mass density in data set [1] turned out to be 783.81 ± 0.5 kg/m3.
`CC(C)=O` [acetone] + CC[N+](CC)(CC)CC.[I-]: in data set [2] (m2 = 0), the mass density came to 783.81 ± 0.5 kg/m3.
Consider `CC#N` [acetonitrile], for which, in data set [1], the mass density was 776.01 ± 0.6 kg/m3 and 776.02 ± 0.59 kg/m3.
`CC#N` [acetonitrile] + CC[N+](CC)(CC)CC.[I-]: in data set [2] (m2 = 0), the mass density came to 776.01 ± 0.6 kg/m3.
Turning to `CO` [methanol], in data set [1], the mass density is 786.38 ± 0.49 kg/m3.
As for `CO` [methanol] + CC[N+](CC)(CC)CC.[I-], the mass density in data set [2] (m2 = 0) is 786.38 ± 0.49 kg/m3.
With `O=[N+]([O-])c1ccccc1` [nitrobenzene], in data set [1], the mass density is listed as 1198.91 ± 0.72 kg/m3.
For `O=[N+]([O-])c1ccccc1` [nitrobenzene] + CC[N+](CC)(CC)CC.[I-], the mass density in data set [2] (m2 = 0) turned out to be 1198.91 ± 0.72 kg/m3.
Consider `CC[N+](CC)(CC)CC.[I-]` [tetraethylammonium iodide] + CC#N, for which the mass density came to 776.01 ± 0.6 kg/m3 in data set [2] (m1 = 0.0001); 776.02 ± 0.59 kg/m3 in data set [2] (m1 = 0.0002); 776.16 ± 0.59 kg/m3 in data set [2] (m1 = 0.00354); 776.16 ± 0.59 kg/m3 in data set [2] (m1 = 0.003541); 776.32 ± 0.59 kg/m3 in data set [2] (m1 = 0.007081); 776.32 ± 0.59 kg/m3 in data set [2] (m1 = 0.007082). Besides, the mass density was 776.47 ± 0.59 kg/m3 in data set [2] (m1 = 0.01062); 776.46 ± 0.59 kg/m3 in data set [2] (m1 = 0.01064); 776.63 ± 0.59 kg/m3 in data set [2] (m1 = 0.01416); 776.61 ± 0.59 kg/m3 in data set [2] (m1 = 0.01417); 776.77 ± 0.59 kg/m3 and 776.78 ± 0.59 kg/m3 in data set [2] (m1 = 0.0176); 776.93 ± 0.59 kg/m3 in data set [2] (m1 = 0.02124). In addition, in data set [2] (m1 = 0.02832), the mass density stood at 777.24 ± 0.59 kg/m3.
Regarding `CC[N+](CC)(CC)CC.[I-]` [tetraethylammonium iodide] + CC(C)=O, the mass density in data set [2] (m1 = 0.0001) is 783.81 ± 0.5 kg/m3; in data set [2] (m1 = 0.0002), 783.81 ± 0.5 kg/m3; in data set [2] (m1 = 0.00536) it was 784.1 ± 0.5 kg/m3; in data set [2] (m1 = 0.005361), 784.11 ± 0.5 kg/m3; in data set [2] (m1 = 0.007105) it was 784.2 ± 0.49 kg/m3; in data set [2] (m1 = 0.007106), 784.21 ± 0.49 kg/m3. Moreover, the mass density is on record as 784.2 ± 0.49 kg/m3 in data set [2] (m1 = 0.007107); 784.3 ± 0.5 kg/m3 in data set [2] (m1 = 0.008909); 784.3 ± 0.5 kg/m3 in data set [2] (m1 = 0.00891); 784.5 ± 0.49 kg/m3 in data set [2] (m1 = 0.01242); 784.6 ± 0.49 kg/m3 in data set [2] (m1 = 0.0142); 784.81 ± 0.49 kg/m3 in data set [2] (m1 = 0.0177). Also, the values for the mass density in data set [2] (m1 = 0.01771), in data set [2] (m1 = 0.02114) and in data set [2] (m1 = 0.02115) were 784.81 ± 0.49 kg/m3, 784.99 ± 0.49 kg/m3 and 785 ± 0.49 kg/m3, respectively.
Turning to `CC[N+](CC)(CC)CC.[I-]` [tetraethylammonium iodide] + CO, the mass density in data set [2] (m1 = 0.0001) worked out at 786.38 ± 0.49 kg/m3; in data set [2] (m1 = 0.0002) it was 786.38 ± 0.49 kg/m3; in data set [2] (m1 = 0.00354), 786.54 ± 0.49 kg/m3; in data set [2] (m1 = 0.003541), 786.54 ± 0.49 kg/m3; in data set [2] (m1 = 0.003542) it was 786.54 ± 0.49 kg/m3; in data set [2] (m1 = 0.007079) it was 786.69 ± 0.49 kg/m3. Moreover, the mass density is on record as 786.69 ± 0.49 kg/m3 in data set [2] (m1 = 0.00708); 786.69 ± 0.49 kg/m3 in data set [2] (m1 = 0.007081); 786.85 ± 0.49 kg/m3 in data set [2] (m1 = 0.01062); 786.85 ± 0.49 kg/m3 in data set [2] (m1 = 0.01063); 787 ± 0.49 kg/m3 in data set [2] (m1 = 0.01416); 787 ± 0.49 kg/m3 in data set [2] (m1 = 0.01417). The mass density in data set [2] (m1 = 0.0176) was 787.17 ± 0.49 kg/m3 and 787.18 ± 0.49 kg/m3; in data set [2] (m1 = 0.02124), 787.31 ± 0.49 kg/m3; in data set [2] (m1 = 0.02832), 787.63 ± 0.49 kg/m3 and 787.62 ± 0.49 kg/m3.
For `CC[N+](CC)(CC)CC.[I-]` [tetraethylammonium iodide] + O=[N+]([O-])c1ccccc1, the mass density in data set [2] (m1 = 0.0001) turned out to be 1198.91 ± 0.72 kg/m3; in data set [2] (m1 = 0.0002) it was 1198.91 ± 0.72 kg/m3; in data set [2] (m1 = 0.003538), 1198.97 ± 0.72 kg/m3; in data set [2] (m1 = 0.007075), 1199.04 ± 0.72 kg/m3; in data set [2] (m1 = 0.0106), 1199.1 ± 0.72 kg/m3; in data set [2] (m1 = 0.01415), 1199.17 ± 0.72 kg/m3. Moreover, the mass density in data set [2] (m1 = 0.01416) was 1199.17 ± 0.72 kg/m3; in data set [2] (m1 = 0.0177), 1199.23 ± 0.72 kg/m3; in data set [2] (m1 = 0.02119) it was 1199.29 ± 0.72 kg/m3; in data set [2] (m1 = 0.02469), 1199.36 ± 0.72 kg/m3 and 1199.35 ± 0.72 kg/m3.

Source of the values: the NIST ThermoML archive (doi:10.1021/je900542y).
